Earlier results on two molecules are cited in US7935500B2, “Identifying calcineurin activators for treatment of schizophrenia” (Massachusetts Institute of Technology, priority 2002, dated 2011).

For data set [1], the system named is IP3 receptors. The conditions noted are these: literature studies [29], [30].
The test system of data set [2] is IP3 receptors. The conditions noted are these: literature studies [29], [30]. This is another data set of the same source.
Data set [3] deals with ryanodine receptor. The settings on record: literature study [28].
Data set [4] concerns ryanodine receptor. The settings on record: literature study [28]. The source holds these as a separate data set.

In the case of `CCN(CC)CCCC(C)Nc1ccnc2cc(Cl)ccc12` (stereo not shown) [chloroquine], in the data set with IP3 receptors [1], the “effect on binding of [3H]-IP3 to membranes” value was “decrease binding of [3H]-IP3 to membranes”. In the data set on IP3 receptors [2], the “effect on calcium influx” value is recorded as “decrease calcium influx”.

Turning to `Cc1ccc(C(=O)Nc2ccc(S(=O)(=O)O)c3cc(S(=O)(=O)O)cc(S(=O)(=O)O)c23)cc1NC(=O)c1cccc(NC(=O)Nc2cccc(C(=O)Nc3cc(C(=O)Nc4ccc(S(=O)(=O)O)c5cc(S(=O)(=O)O)cc(S(=O)(=O)O)c45)ccc3C)c2)c1` [suramin], in the data set on ryanodine receptor [3], the “effect on binding of [3H]-ryanodine to membranes” value was “increase binding of [3H]-ryanodine to membranes”. Besides, the “effect on probability of the channel being open (calcium influx)” value in the data set with ryanodine receptor [4] is recorded as “increase the probability of the channel being open”.
